# Assay results published in US8889875B2, “Pyridyl derivatives as CFTR modulators” (Vertex Pharmaceuticals Incorporated, priority 2008, dated 2014).
# Molecular target: T1, ΔF508-CFTR (Homo sapiens, UniProt P13569, DEL508-508)
# T1 construct: expressed in transfected cells
# Assay: Membrane potential optical assay, identification of correction compounds (single-addition HTS format)
# Assay type: cell-based
# Details: PercentActivity; ΔF508-CFTR in NIH3T3 mouse fibroblasts; 16-24 hrs with compound; 10 μM forskolin and 20 μM genistein; read-out: BinnedMaxEfficacy
# From the text: Membrane Potential Optical Methods for Assaying ΔF508-CFTR Modulation Properties of Compounds.
# The assay utilizes fluorescent voltage sensing dyes to measure changes in membrane potential using a fluorescent plate reader (e.g., FLIPR III, Molecular Devices, Inc.) as a readout for increase in functional ΔF508-CFTR in NIH 3T3 cells. The driving force for the response is the creation of a chloride ion gradient in conjunction with channel activation by a single liquid addition step after the cells have previously been treated with compounds and subsequently loaded with a voltage sensing dye.
# To identify small molecules that correct the trafficking defect associated with ΔF508-CFTR; a single-addition HTS assay format was developed. Assay Plates containing cells are incubated for ˜2-4 hours in tissue culture incubator at 37° C., 5% CO2, 90% humidity. Cells are then ready for compound exposure after adhering to the bottom of the assay plates.
# The cells were incubated in serum-free medium for 16-24 hrs in tissue culture incubator at 37° C., 5% CO2, 90% humidity in the presence or absence (negative control) of test compound. The cells were subsequently rinsed 3× with Krebs Ringers solution and loaded with a voltage sensing redistribution dye. To activate ΔF508-CFTR, 10 μM forskolin and the CFTR potentiator, genistein (20 μM), were added along with Cl^−-free medium to each well. The addition of Cl^−-free medium promoted Cl^− efflux in response to ΔF508-CFTR activation and the resulting membrane depolarization was optically monitored using voltage sensor dyes.
# Bath Solution #1: (in mM) NaCl 160, KCl 4.5, CaCl2 2, MgCl2 1, HEPES 10, pH 7.4 with NaOH.
# Chloride-free bath solution: Chloride salts in Bath Solution #1 are substituted with gluconate salts.
# NIH3T3 mouse fibroblasts stably expressing ΔF508-CFTR are used for optical measurements of membrane potential. The cells are maintained at 37° C. in 5% CO2 and 90% humidity in Dulbecco's modified Eagle's medium supplemented with 2 mM glutamine, 10% fetal bovine serum, 1×NEAA, β-ME, 1×pen/strep, and 25 mM HEPES in 175 cm^2 culture flasks. For all optical assays, the cells were seeded at ˜20,000/well in 384-well matrigel-coated plates and cultured for 2 hrs at 37° C. before culturing at 27° C. for 24 hrs. for the potentiator assay. For the correction assays, the cells are cultured at 27° C. or 37° C. with and without compounds for 16-24 hours.
# T1 sequence (P13569 with tags, fused parts or gaps DEL508-508): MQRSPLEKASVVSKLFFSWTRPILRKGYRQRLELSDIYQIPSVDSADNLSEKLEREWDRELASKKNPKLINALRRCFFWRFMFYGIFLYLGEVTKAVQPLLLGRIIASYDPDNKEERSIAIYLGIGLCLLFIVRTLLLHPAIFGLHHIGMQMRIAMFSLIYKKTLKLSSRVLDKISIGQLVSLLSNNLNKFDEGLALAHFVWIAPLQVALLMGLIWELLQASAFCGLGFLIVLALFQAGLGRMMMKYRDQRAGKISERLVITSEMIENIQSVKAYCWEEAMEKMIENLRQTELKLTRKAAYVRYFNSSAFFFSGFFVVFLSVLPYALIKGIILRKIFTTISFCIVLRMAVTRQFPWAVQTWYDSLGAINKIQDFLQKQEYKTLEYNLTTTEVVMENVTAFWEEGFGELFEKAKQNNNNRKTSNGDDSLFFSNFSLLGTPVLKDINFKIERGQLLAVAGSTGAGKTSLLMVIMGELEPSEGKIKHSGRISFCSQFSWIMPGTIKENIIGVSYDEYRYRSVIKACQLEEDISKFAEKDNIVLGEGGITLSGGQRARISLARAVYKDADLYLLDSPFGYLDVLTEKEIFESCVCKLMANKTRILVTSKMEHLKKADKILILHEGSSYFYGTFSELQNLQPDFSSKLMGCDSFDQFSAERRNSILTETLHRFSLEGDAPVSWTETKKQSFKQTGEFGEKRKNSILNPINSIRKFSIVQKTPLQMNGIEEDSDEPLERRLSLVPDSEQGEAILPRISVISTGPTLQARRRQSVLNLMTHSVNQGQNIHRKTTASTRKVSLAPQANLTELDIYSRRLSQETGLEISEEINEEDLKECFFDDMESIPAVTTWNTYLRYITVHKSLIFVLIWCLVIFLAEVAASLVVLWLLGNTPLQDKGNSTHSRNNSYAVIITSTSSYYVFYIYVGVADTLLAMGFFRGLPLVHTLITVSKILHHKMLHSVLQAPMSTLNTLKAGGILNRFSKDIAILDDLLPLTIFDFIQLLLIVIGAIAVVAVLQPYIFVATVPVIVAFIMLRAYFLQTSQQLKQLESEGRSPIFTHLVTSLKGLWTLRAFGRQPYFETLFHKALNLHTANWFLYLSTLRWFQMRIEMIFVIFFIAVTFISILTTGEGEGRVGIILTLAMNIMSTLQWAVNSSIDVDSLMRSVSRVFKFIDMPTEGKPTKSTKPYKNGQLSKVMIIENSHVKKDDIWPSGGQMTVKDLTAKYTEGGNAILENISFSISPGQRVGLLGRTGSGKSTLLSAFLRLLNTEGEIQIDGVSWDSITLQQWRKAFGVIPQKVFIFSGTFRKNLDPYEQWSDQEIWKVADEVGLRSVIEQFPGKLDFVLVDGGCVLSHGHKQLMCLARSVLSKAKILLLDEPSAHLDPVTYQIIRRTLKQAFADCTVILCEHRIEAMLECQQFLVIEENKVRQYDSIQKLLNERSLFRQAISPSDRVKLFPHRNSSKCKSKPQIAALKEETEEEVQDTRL
row,Structure (SMILES),Emax
1,COc1ccc(Cc2cccc(NC(=O)C3(c4ccc5c(c4)OCO5)CC3)n2)cc1 [Compound 3],> 100%
2,COc1ccc(C2(C(=O)Nc3ccc(Cc4ccccc4OC)cn3)CC2)cc1 [Compound 8],25 to 100%
3,COc1ccccc1C(OCCN1CCOCC1)c1ccc(NC(=O)C2(c3ccc4c(c3)OCO4)CC2)nc1 (stereo not shown) [Compound 11],> 100%
4,COc1ccc(C2(C(=O)Nc3ccc(C(=O)c4ccccc4OC)cn3)CC2)cc1OC [Compound 12],25 to 100%
5,COc1ccccc1Cc1ccc(NC(=O)C2(c3ccccc3OC)CC2)nc1 [Compound 13],25 to 100%
6,O=C(c1ccccc1)c1ccc(NC(=O)C2(c3ccc4c(c3)OCO4)CC2)nc1 [Compound 14],> 100%
7,O=C(Nc1ccc(CC2CCCCC2)cn1)C1(c2ccc3c(c2)OCO3)CC1 [Compound 16],> 100%
8,Cc1ccnc(NC(=O)C2(c3ccc4c(c3)OCO4)CC2)c1 [Compound 21],> 100%
9,COc1ccccc1C(c1ccc(NC(=O)C2(c3ccc4c(c3)OCO4)CC2)nc1)N1CC(C)OC(C)C1 (stereo not shown) [Compound 23],> 100%
10,O=C(Nc1ccc(Cc2c(Cl)cccc2Cl)cn1)C1(c2ccc3c(c2)OCO3)CC1 [Compound 24],> 100%
11,COc1ccc(C2(C(=O)Nc3ccccn3)CC2)cc1 [Compound 25],25 to 100%
12,COc1ccc(C2(C(=O)Nc3ccc(C(=O)c4ccccc4OC)cn3)CC2)cc1 [Compound 28],> 100%
13,CC(C)Cc1ccc(NC(=O)C2(c3ccc4c(c3)OCO4)CC2)nc1 [Compound 29],> 100%
14,COc1ccccc1C(c1ccc(NC(=O)C2(c3ccc4c(c3)OCO4)CC2)nc1)N1CCCCC1 (stereo not shown) [Compound 32],> 100%

# Results, then the molecule that gave them:
row,Emax,Structure (SMILES)
1,25 to 100%,COc1ccccc1C(=O)c1ccc(NC(=O)C2(c3ccccc3OC)CC2)nc1 [Compound 1]
2,> 100%,CCc1ccnc(NC(=O)C2(c3ccc4c(c3)OCO4)CC2)c1 [Compound 2]
3,> 100%,COc1ccccc1Cc1ccc(NC(=O)C2(c3ccc(OC(F)(F)F)cc3)CC2)nc1 [Compound 4]
4,> 100%,Cc1ccccc1Cc1cccc(NC(=O)C2(c3ccc4c(c3)OCO4)CC2)n1 [Compound 5]
5,25 to 100%,NC(=O)c1ccc(NC(=O)C2(c3ccc4c(c3)OCO4)CC2)nc1 [Compound 6]
6,> 100%,CCN(CC)C(c1ccc(NC(=O)C2(c3ccc4c(c3)OCO4)CC2)nc1)c1ccccc1OC (stereo not shown) [Compound 7]
7,> 100%,COc1ccccc1C(c1ccc(NC(=O)C2(c3ccc4c(c3)OCO4)CC2)nc1)N1CCCC1 (stereo not shown) [Compound 9]
8,25 to 100%,COc1ccccc1Cc1ccc(NC(=O)C2(c3ccc(OC)c(OC)c3)CC2)nc1 [Compound 10]
9,25 to 100%,O=C(Nc1ccc(C(F)(F)F)cn1)C1(c2ccc3c(c2)OCO3)CC1 [Compound 17]
10,25 to 100%,COc1ccccc1C(OCCN(C(C)C)C(C)C)c1ccc(NC(=O)C2(c3ccc4c(c3)OCO4)CC2)nc1 (stereo not shown) [Compound 18]
11,25 to 100%,CCc1cccc(NC(=O)C2(c3ccc(OC)cc3)CC2)n1 [Compound 19]
12,> 100%,COc1ccccc1C(c1ccc(NC(=O)C2(c3ccc4c(c3)OCO4)CC2)nc1)N(C)C (stereo not shown) [Compound 20]
13,25 to 100%,COCCN1CCN(C(c2ccc(NC(=O)C3(c4ccc5c(c4)OCO5)CC3)nc2)c2ccccc2OC)CC1 (stereo not shown) [Compound 22]
14,> 100%,CCc1cccc(NC(=O)C2(c3ccc4c(c3)OCO4)CC2)n1 [Compound 26]
15,> 100%,COc1ccccc1C(=O)c1ccc(NC(=O)C2(c3ccc4c(c3)OCO4)CC2)nc1 [Compound 27]
16,25 to 100%,COc1ccccc1C(=O)c1ccc(NC(=O)C2(c3ccc(OC(F)(F)F)cc3)CC2)nc1 [Compound 30]
17,25 to 100%,COc1ccccc1Cc1ccc(NC(=O)C2(c3ccc(C)cc3)CC2)nc1 [Compound 31]
18,> 100%,CCCOC(c1ccc(NC(=O)C2(c3ccc4c(c3)OCO4)CC2)nc1)c1ccccc1OC (stereo not shown) [Compound 33]
19,25 to 100%,COc1cccc(C2(C(=O)Nc3ccc(Cc4ccccc4OC)cn3)CC2)c1 [Compound 34]
20,> 100%,COc1ccccc1Cc1ccc(NC(=O)C2(c3ccc4c(c3)OCO4)CC2)nc1 [Compound 35]
